# Laboratory results taken from patent US20260265259A1, “SUBSTITUTED 6-IMIDAZOPYRIDAZINE IL-17A MODULATORS AND USES THEREOF” (DICE ALPHA, INC., priority 2023, published 2026).
# Read-outs that look alike come from different tables or passages of the source.
# Test system: IL-17A/A
# Assay: IL-17A/A HEK-Blue cell assay
# Assay type: cell-based
# Conditions: IL-17A/A inhibition, HEK-Blue IL-17A reporter cell line, IL17A/A 5 ng/mL
# Description: The HEK-Blue IL-17A reporter cell line (Fisher #NC1408637) was used for cell-based IL-17A/A inhibition assays. Cells were grown and prepared for assays according to the manufacturer's instructions. This cell line consists of HEK 293 cells that were designed to expressed IL-17RA, IL-17RC, and the Act1 adapter molecule, the combination of which, when stimulated by IL-17A/A or IL17A/F activates a NFκB promoter and drives expression of the recombinant Secreted Alkaline Phosphatase (SEAP) gene. Media from the cells is then added to a development reagent (Quanti-Blue Substrate, Fisher #NC9711613), and read at A630.
# Compounds were dispensed in DMSO to an empty clear 384-well tissue culture plate in a titration ranging from 10 μM to 27 pM, with DMSO added to every well to a final concentration of 0.1%. Cells were then added to the plate (45 μL/well at a concentration of 280,000 cells/mL). IL17A/A (Genscript #Z03228) or IL17A/F (R&D Systems) was added to the plate to a final concentration of 5 ng/mL and a final well volume of 50 μL. The cells, compound, and IL-17A/A or IL17A/F were then incubated for 20 hours before media was removed for SEAP analysis. The resulting inhibition curve was then analyzed using Dotmatics' integrated 4-parameter fit screening protocol to generate IC50 values.
# [1] = HEK-Blue, 20 h, SEAP read at A630, read-out: AA IC50
# [2] = 20 hours, SEAP read at A630, read-out: AA IC50
SMILES,IC50 [1] [nM],IC50 [2] [nM]
CCn1nccc1C(=O)N[C@H](c1cn2nc(C[C@@H]3C[C@@H](C(F)(F)F)CNC3=O)c(C3CCOC3)cc2n1)C1CCC(F)(F)CC1 (stereo partly drawn) [Compound 10],100 to 1000,–
CCn1nccc1C(=O)N[C@H](c1cn2nc(C[C@H]3C[C@@H](C(F)(F)F)CNC3=O)c(N3CCC(F)(F)CC3)cc2n1)C1CCC(F)(F)CC1 [Compound 19],< 100,–
"CCn1nccc1C(=O)N[C@H](c1cn2nc(C[C@@H]3C[C@H](C)CNC3=O)c(C3CCOCC3)cc2n1)C1CCC(F)(F)CC1 [Compound 103, N—((1S)-(4,4-difluorocyclohexyl)(6-(((5S)-5-methyl-2-oxopiperidin-3-yl)methyl)-7-(tetrahydro-2H-pyran-4-yl)imidazo[1,2-b]pyridazin-2-yl)methyl)-1-ethyl-1H-pyrazole-5-carboxamide]",< 100,–
"CCn1nccc1C(=O)N[C@H](c1cn2nc(C[C@H]3C[C@@H](C(F)(F)F)CNC3=O)c(CN(C)C)cc2n1)C1CCC(F)(F)CC1 [Compound 111, N—((S)-(4,4-difluorocyclohexyl)(7-((dimethylamino)methyl)-6-(((3R,5R)-2-oxo-5-(trifluoromethyl)piperidin-3-yl)methyl)imidazo[1,2-b]pyridazin-2-yl)methyl)-1-ethyl-1H-pyrazole-5-carboxamide]",< 100,–
"CCn1nccc1C(=O)N[C@H](c1cn2nc(C[C@H]3C[C@@H](C(F)(F)F)CNC3=O)c(CN3CC(F)(F)C3)cc2n1)C1CCC(F)(F)CC1 [Compound 109, N—((S)-(7-((3,3-difluoroazetidin-1-yl)methyl)-6-(((3R,5R)-2-oxo-5-(trifluoromethyl)piperidin-3-yl)methyl)imidazo[1,2-b]pyridazin-2-yl)(4,4-difluorocyclohexyl)methyl)-1-ethyl-1H-pyrazole-5-carboxamide]",< 100,–
CCn1nccc1C(=O)N[C@H](c1cn2nc(C[C@H]3C[C@@H](C(F)(F)F)CNC3=O)c(C3CCN(C)C3)cc2n1)C1CCC(F)(F)CC1 (stereo partly drawn) [Compound 62],–,100 to 1000
CCn1nccc1C(=O)N[C@H](c1cn2nc(C[C@@H]3C[C@@H](C(F)(F)F)CNC3=O)c(C3CCOC3)cc2n1)C1CCC(F)(F)CC1 (stereo partly drawn) [Compound 11],–,100 to 1000
O=C(N[C@H](c1cn2nc(C[C@H]3C[C@@H](C(F)(F)F)CNC3=O)c(C3CCOCC3)cc2n1)C1CCC(F)(F)CC1)c1ccnn1C1CC1(F)F (stereo partly drawn) [Compound 92],100 to 1000,–
O=C(N[C@H](c1cn2nc(C[C@H]3C[C@@H](C(F)(F)F)CNC3=O)c(C3CCOCC3)cc2n1)[C@H]1CCCC(F)(F)C1)c1nonc1C1CC1 [Compound 57],< 100,–
"CCn1nccc1C(=O)N[C@H](c1cn2nc(C[C@H]3C[C@@H](C(F)(F)F)CNC3=O)c(N3CCN4CCOC[C@@H]4C3)cc2n1)C1CCC(F)(F)CC1 [Compound 104, N—((S)-(4,4-difluorocyclohexyl)(7-((S)-hexahydropyrazino[2,1-c][1,4]oxazin-8(1H)-yl)-6-(((3R,5R)-2-oxo-5-(trifluoromethyl)piperidin-3-yl)methyl)imidazo[1,2-b]pyridazin-2-yl)methyl)-1-ethyl-1H-pyrazole-5-carboxamide]",< 100,–
CC(C)n1ncnc1C(=O)N[C@H](c1cn2nc(C[C@H]3C[C@@H](C(F)(F)F)CNC3=O)c(C3CCOCC3)cc2n1)C1CCC(F)(F)CC1 [Compound 90],< 100,–
O=C(N[C@H](c1cn2nc(C[C@H]3C[C@H](C(F)(F)F)CNC3=O)c(N3CCOCC3)cc2n1)C1CCC(F)(F)CC1)c1nonc1C1CC1 [Compound 38],< 100,–
CCn1nccc1C(=O)N[C@H](c1cn2nc(C[C@H]3C[C@@H](C(F)(F)F)CNC3=O)c(C3CCN(C)CC3)cc2n1)C1CCC(F)(F)CC1 [Compound 60],100 to 1000,–
CCn1ncnc1C(=O)N[C@H](c1cn2nc(C[C@H]3C[C@@H](C(F)(F)F)CNC3=O)c(C3CCOCC3)cc2n1)C1CCC(F)(F)CC1 [Compound 89],100 to 1000,–
O=C(N[C@H](c1cn2nc(C[C@H]3C[C@@H](C(F)(F)F)CNC3=O)c(C3CCOCC3)cc2n1)C1CCC(F)(F)CC1)c1ccnn1C1CC1 [Compound 91],< 100,–
